Where a name gives a salt, the structure may show the parent alone.
Assays:
hOGA = molecular target: T1, hOGA (Homo sapiens, UniProt O60502); assay: Inhibition assay against hOGA, resorufin N-acetyl-β-D-glucosaminide fluorescence; format: biochemical; details: 0.2 nM hOGA, 25 μM substrate, pH 7.1; Morrison Ki
T1 sequence (O60502 1-916): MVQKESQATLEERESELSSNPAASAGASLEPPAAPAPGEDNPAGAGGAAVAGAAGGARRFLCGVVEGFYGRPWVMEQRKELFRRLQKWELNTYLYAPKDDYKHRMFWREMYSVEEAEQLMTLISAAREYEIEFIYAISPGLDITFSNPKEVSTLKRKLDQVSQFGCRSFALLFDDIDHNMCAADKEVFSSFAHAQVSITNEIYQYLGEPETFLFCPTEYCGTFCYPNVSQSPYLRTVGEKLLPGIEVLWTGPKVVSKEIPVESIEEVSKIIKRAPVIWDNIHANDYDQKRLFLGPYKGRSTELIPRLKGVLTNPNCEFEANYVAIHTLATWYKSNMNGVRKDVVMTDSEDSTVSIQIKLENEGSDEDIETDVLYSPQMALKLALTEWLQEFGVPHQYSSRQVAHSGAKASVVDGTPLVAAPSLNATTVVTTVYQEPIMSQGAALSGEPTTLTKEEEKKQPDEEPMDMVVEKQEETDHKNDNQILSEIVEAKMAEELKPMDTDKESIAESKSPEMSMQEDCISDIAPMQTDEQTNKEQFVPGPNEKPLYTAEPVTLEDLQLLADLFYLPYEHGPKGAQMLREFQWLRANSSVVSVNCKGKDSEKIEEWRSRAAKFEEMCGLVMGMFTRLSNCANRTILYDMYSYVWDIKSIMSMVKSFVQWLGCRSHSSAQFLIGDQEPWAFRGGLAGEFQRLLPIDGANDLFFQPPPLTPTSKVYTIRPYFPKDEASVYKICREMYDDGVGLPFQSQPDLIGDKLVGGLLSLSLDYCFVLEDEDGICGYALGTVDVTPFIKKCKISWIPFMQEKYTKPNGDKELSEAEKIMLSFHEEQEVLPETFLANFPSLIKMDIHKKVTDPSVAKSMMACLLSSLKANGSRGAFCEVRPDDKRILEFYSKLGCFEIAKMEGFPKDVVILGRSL
Procedure: Inhibition Assays Against hOGA
Km=25 μM was measured with these conditions. Inhibition assays were run at 0.2 nM [hOGA] in the same buffer, in the presence or absence of various concentrations of inhibitors and at a fixed substrate concentration of 25 μM and 1% DMSO. First, inhibitor was serially diluted to the desired range of concentrations in 2% DMSO buffer. Next, 50 μL of inhibitor solutions at various concentrations in 2% DMSO Buffer was added to 50 μL of 0.8 nM enzyme and allowed to incubate at 25° C. for 5 minutes. 100 uL of 50 μM and 1% DMSO substrate was then added and reaction mixture was immediately mixed and aliquoted in 45 μL triplicates to a CORNING 384 well black plate. Fluorescence signal was measured continuously for 20 minutes at 37° C. in a BioTek Neo 2 Plate reader set at excitation and emission wavelengths of 572 and 610 nm, respectively. Max reaction rates for all inhibitor concentrations were calculated within Gen5 BioTek reader software. % Activity was subsequently calculated for each inhibitor concentration against the max reaction rate of uninhibited hOGA. GraphPad Prism 2016 was used to approximate the Morrison Ki values for each inhibitor.

Total hHex = assay: Inhibition of total hHex; format: biochemical, human; details: IC50 for total hHexA; NI = no inhibition detected at 200 μM

Compound | Ki (hOGA) | IC50 (Total hHex)
CCCNC(=S)N[C@H]1CN2/C(=N/Cc3ccccc3)SC[C@@H]2[C@@H](O)[C@@H]1O [Compound 19, 2-Propylthioureido-5-N,6-S-(N′-benzyliminomethylidene)-1,2-dideoxy-6-thionojirimycin] | 0.762 µM | > 200 µM
CCC(=O)N[C@H]1CN2/C(=N/Cc3ccc4[nH]ccc4c3)SC[C@@H]2[C@@H](O)[C@@H]1O [Compound 15, 2-Propionamido-5-N,6-S-(N′-5-indolylmethyliminomethylidene)-1,2-dideoxy-6-thionojirimycin hydrochloride] | 0.000657 µM | > 200 µM
CC(C)C(=O)N[C@H]1CN2/C(=N/Cc3ccccc3)SC[C@@H]2[C@@H](O)[C@@H]1O [Compound 16, 2-Isobutanamido-5-N,6-S-(N′-benzyliminomethylidene)-1,2-dideoxy-6-thionojirimycin Hydrochloride] | 0.888 µM | > 200 µM
CCC(=O)N[C@H]1CN2/C(=N/Cc3ccccc3)SC[C@@H]2[C@@H](O)[C@@H]1O [Compound 13, 2-Propanamido-5-N,6-S-(N′-benzyliminomethylidene)-1,2-dideoxy-6-thionojirimycin Hydrochloride] | 0.00797 µM | > 200 µM
CCNC(=S)N[C@H]1CN2/C(=N/Cc3ccccc3)SC[C@@H]2[C@@H](O)[C@@H]1O [Compound 18, 2-Ethylthioureido-5-N,6-S-(N′-benzyliminomethylidene)-1,2-dideoxy-6-thionojirimycin] | 1.06 µM | > 200 µM
CCCC(=O)N[C@H]1CN2/C(=N/Cc3ccccc3)SC[C@@H]2[C@@H](O)[C@@H]1O [Compound 17, 2-Butanamido-5-N,6-S-(N′-benzyliminomethylidene)-1,2-dideoxy-6-thionojirimycin] | 0.337 µM | > 200 µM
CCC(=O)N[C@H]1CN2/C(=N/Cc3cccc4ccccc34)SC[C@@H]2[C@@H](O)[C@@H]1O [Compound 14, 2-Propionamido-5-N,6-S-(N′-1-naphthylmethyliminomethylidene)-1,2-dideoxy-6-thionojirimycin hydrochloride] | 0.000701 µM | > 200 µM

— patent US20230391796A1, “GLYCOSIDASE INHIBITORS AND USES THEREOF” (UNIVERSIDAD DE SEVILLA (US) -UNIVERSITY OF SEVILLE (US), priority 2020, published 2023)
